{"source": "paper PMC8712285", "about": "“Thermococcus sp. KS-1 PPIase as a fusion partner improving soluble production of aromatic amino acid decarboxylase” (AMB Express, 2021)", "key": {"PPIase KS-1-AADC [1]": {"target": "T1, PPIase KS-1-AADC (Pseudomonas putida, UniProt Q88JU5)", "T1 construct": "gene PP_2552; AADC with N-terminal solubility partner Thermococcus sp; not cut; E. coli BL21(DE3)", "T1 sequence (Q88JU5 entry or part of it)": "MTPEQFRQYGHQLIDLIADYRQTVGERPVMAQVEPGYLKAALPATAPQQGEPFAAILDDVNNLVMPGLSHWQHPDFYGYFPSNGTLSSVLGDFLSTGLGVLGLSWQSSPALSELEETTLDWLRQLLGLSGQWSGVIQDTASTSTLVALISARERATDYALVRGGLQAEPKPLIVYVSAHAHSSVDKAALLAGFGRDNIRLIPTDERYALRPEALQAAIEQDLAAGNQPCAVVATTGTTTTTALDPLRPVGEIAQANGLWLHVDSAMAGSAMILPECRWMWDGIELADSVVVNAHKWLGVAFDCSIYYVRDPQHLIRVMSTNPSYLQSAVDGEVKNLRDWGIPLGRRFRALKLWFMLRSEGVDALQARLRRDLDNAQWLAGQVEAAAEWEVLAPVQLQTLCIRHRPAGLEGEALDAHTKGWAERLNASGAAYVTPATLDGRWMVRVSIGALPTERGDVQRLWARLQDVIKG", "experiment": "HPLC of dopamine formation, cell-free extract", "assay_type": "biochemical", "details": "1 mM L-dopa, 50 uM PLP, 2 mM 2-ME, 50 mM potassium phosphate pH 8.0, 30 °C"}, "[2]": {"target": "T2, AADC (aromatic amino acid decarboxylase) (Pseudomonas putida, UniProt Q88JU5)", "T2 construct": "gene PP_2552; full-length, untagged, from pET-3a (pAADC) in E. coli BL21(DE3)", "T2 sequence (Q88JU5 entry or part of it)": "as above", "experiment": "HPLC of dopamine formation, cell-free extract", "assay_type": "biochemical", "details": "1 mM L-dopa, 50 uM PLP, 2 mM 2-ME, 50 mM potassium phosphate pH 8.0, 30 °C"}, "NusA-AADC": {"target": "T3, NusA-AADC (Pseudomonas putida, UniProt Q88JU5)", "T3 construct": "gene PP_2552; E. coli BL21(DE3)", "T3 sequence (Q88JU5 entry or part of it)": "as above", "experiment": "HPLC of dopamine formation, cell-free extract", "assay_type": "biochemical", "details": "1 mM L-dopa, 50 uM PLP, 2 mM 2-ME, 50 mM potassium phosphate pH 8.0, 30 °C"}, "PPIase KS-1-AADC [3]": {"target": "T1, PPIase KS-1-AADC", "experiment": "HPLC (AccQ-tag) of phenylethylamine produced by recombinant E. coli cells", "assay_type": "cell-based", "details": "1 mM L-phenylalanine, M9 minimal medium, 25 °C, whole cells"}}, "data": [{"smiles": "N[C@@H](Cc1ccc(O)c(O)c1)C(=O)O", "note": "[L-dopa]", "values": [{"measurement": "HPLC of dopamine formation, cell-free extract", "setting": "PPIase KS-1-AADC [1]", "value": "the AADC activity toward L-dopa was significantly higher in PPIase KS−1-AADC as compared to NusA-AADC"}, {"measurement": "HPLC of dopamine formation, cell-free extract", "setting": "[2]", "value": "The AADC activity was measured using these cell-free extracts"}, {"measurement": "HPLC of dopamine formation, cell-free extract", "setting": "NusA-AADC", "value": "the AADC activity toward L-dopa was significantly higher in PPIase KS−1-AADC as compared to NusA-AADC"}]}, {"smiles": "N[C@@H](Cc1ccccc1)C(=O)O", "note": "[L-phenylalanine]", "values": [{"measurement": "HPLC (AccQ-tag) of phenylethylamine produced by recombinant E. coli cells", "setting": "PPIase KS-1-AADC [3]", "value": "Phenylethylamine accumulation was also higher in PPIase KS−1-AADC-producing strain"}]}]}
